Assay results reported in patent US11110082B2, “Tyrosine kinase inhibitors” (Rigel Pharmaceuticals, Inc., priority 2016, dated 2021).

Target: T1, MerTK (Homo sapiens, UniProt Q12866)
T1 construct: Seed HUVECs (10K cells/well) in EBM-2 complete media; host or cells: HUVEC (primary human umbilical vein endothelial cells)
T1 sequence (Q12866 21-999): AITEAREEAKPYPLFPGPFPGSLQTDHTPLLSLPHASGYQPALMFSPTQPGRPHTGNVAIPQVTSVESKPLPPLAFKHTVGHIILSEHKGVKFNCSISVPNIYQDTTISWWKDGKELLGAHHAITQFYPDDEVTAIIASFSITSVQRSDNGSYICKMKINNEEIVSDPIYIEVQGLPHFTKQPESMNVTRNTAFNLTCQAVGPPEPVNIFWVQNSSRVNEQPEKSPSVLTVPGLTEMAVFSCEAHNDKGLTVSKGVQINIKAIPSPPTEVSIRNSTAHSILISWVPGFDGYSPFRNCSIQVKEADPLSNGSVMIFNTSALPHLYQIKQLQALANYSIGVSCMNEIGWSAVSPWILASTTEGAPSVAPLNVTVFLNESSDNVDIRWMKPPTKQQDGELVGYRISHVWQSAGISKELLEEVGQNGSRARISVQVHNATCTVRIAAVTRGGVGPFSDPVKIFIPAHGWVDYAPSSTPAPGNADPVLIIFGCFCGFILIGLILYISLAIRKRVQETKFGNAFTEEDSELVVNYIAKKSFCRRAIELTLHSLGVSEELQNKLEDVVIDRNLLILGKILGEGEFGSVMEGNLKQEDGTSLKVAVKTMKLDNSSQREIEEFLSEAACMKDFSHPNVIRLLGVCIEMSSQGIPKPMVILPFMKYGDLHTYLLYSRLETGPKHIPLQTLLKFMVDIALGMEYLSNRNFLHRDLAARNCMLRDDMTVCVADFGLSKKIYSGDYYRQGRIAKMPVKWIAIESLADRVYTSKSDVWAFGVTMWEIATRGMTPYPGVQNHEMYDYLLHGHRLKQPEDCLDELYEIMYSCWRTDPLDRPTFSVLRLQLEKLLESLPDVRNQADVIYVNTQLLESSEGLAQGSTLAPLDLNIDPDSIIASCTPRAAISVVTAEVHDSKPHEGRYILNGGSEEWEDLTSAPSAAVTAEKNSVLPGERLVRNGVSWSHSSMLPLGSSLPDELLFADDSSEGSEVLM
Test: PAKT HTRF-HUVEC assay (pAkt Ser473 HTRF after anti-human MerTK-XL stimulation)
Assay type: cell-based
Details: HUVEC cells, 1 hour compound, stimulated with anti-human MerTK-XL 1 ug/mL for 10 minutes, read-out: inhibition of MerTK
Method: Example 4: PAKT HTRF-HUVEC Assay Phospho Akt (Ser473) Assay kit-10,000 tests (Cisbio US, 64[…]) HUVEC cells (Lonza, CC-2519) Anti-human MerTK antibody (Clone 125518) (R&D Systems, MAB8912) Method Seed HUVECs (10K cells/well) in EBM-2 complete media (EBM-2 basal medium plus EGM-2 BulletKit supplements) overnight at 37° C., 5% CO2 in Costar 96-well white clear-bottom plates. Remove culture media and starve cells for 3-4 hours in 50 μL/well EBM-2 basal medium. Perform serial dilution of compounds in DMSO from 2.5 mM in 4-fold dilutions, and then dilute 1:125 in EBM-2 basal media. Mix 50 μL/well 2x compounds with 50 μL/well HUVECs in duplicate in Costar 96-well white clear-bottom plates. Incubate plates for 1 hour at 37° C., 5% CO2. Cross-link anti-human MerTK antibody to Biotin-SP-conjugated anti-mouse IgG antibody (1:1) to give final concentrations of 5 ug/mL of anti-human MerTK-XL. Stimulate HUVECs with 25 μL/well 5x anti-human MerTK-XL to give final concentrations of 1 ug/mL for 10 minutes at 37° C., 5% CO2. Completely remove media and lyse HUVECs with 40 uL/WELL per well of Cisbio HTRF 1× lysis buffer. Performed pAkt(Ser473) HTRF assay in ProxiPlate-384 Plus, white 384-shallow well microplate according to the vendor protocol and read plates with a SpectralMax Paradigm plate reader. Enter the HTRF values into Athena (Rigel) for curve fitting, EC50 calculation, and database storage.

SMILES | EC50
CN1CCN(c2ccc3c(c2)c(=O)n([C@H]2CC[C@H](O)CC2)c2nc(NCCC4CC4)ncc32)CC1 [Compound 96, trans-3-((2-Cyclopropylethyl)amino)-5-(4-hydroxycyclohexyl)-8-(4-methylpiperazin-1-yl)pyrimido[4,5-c]isoquinolin-6(5H)-one] | 41.4 nM
CCCCNc1ncc2c3ccc(N4CCn5ncnc5C4)cc3c(=O)n([C@H]3CC[C@H](O)CC3)c2n1 [Compound 80, trans-3-(Butylamino)-8-(5,6-dihydro-[1,2,4]triazolo[1,5-a]pyrazin-7(8H)-yl)-5-(4-hydroxycyclohexyl)pyrimido [4,5-c]isoquinolin-6(5H)-one] | 34.5 nM
CCCCNc1ncc2c3ccc(N4CCOCC4)cc3c(=O)n([C@H]3CC[C@H](O)CC3)c2n1 [Compound 62, trans-3-(Butylamino)-5-(4-hydroxycyclohexyl)-8-morpholinopyrimido[4,5-c]isoquinolin-6(5H)-one] | 95.2 nM
CCCCNc1ncc2c3ccc(N4CCN5CCC[C@@H]5C4)cc3c(=O)n([C@H]3CC[C@H](O)CC3)c2n1 [Compound 76, trans-3-(Butylamino)-8-((R)-hexahydropyrrolo[1,2-a]pyrazin-2(1H)-yl)-5-(4-hydroxycyclohexyl)pyrimido [4,5-c]isoquinolin-6(5H)-one] | 11.5 nM
CCCCNc1ncc2c3ccc(N4CCN(C)CC4)cc3c(=O)n(CC3CCC(N)CC3)c2n1 (stereo not shown) [Compound 65, 5-((4-Aminocyclohexyl)methyl)-3-(butylamino)-8-(4-methylpiperazin-1-yl)pyrimido[4,5-c]isoquinolin-6(5H)-one] | 78.3 nM
O=c1c2cc(CN3CCN(c4ccncc4)CC3)ccc2c2cnc(NCC3CC3)nc2n1[C@H]1CC[C@H](O)CC1 [Compound 194] | 33.6 nM
CC(C)CCNc1ncc2c3ccc(CN4CCN(c5ccncc5)CC4)cc3c(=O)n([C@H]3CC[C@H](O)CC3)c2n1 [Compound 223, trans-5-(4-Hydroxycyclohexyl)-3-(isopentylamino)-8-((4-(pyridin-4-yl)piperazin-1-yl)methyl)pyrimido[4,5-c]isoquinolin-6(5H)-one] | 14.3 nM
CCCCNc1ncc2c3ccc(CN4CCN(C)CC4)cc3c(=O)n(C3CC4(CC(O)C4)C3)c2n1 (stereo not shown) [Compound 14, 3-(Butylamino)-5-(6-hydroxyspiro[3.3]heptan-2-yl)-8-((4-methylpiperazin-1-yl)methyl)pyrimido[4,5-c]isoquinolin-6(5H)-one] | 56.4 nM
CCCCNc1ncc2c3ccc(CN4CCN(C)CC4)cc3c(=O)n([C@H]3CC[C@H](NCCO)C3)c2n1 [Compound 238, 3-(butylamino)-5-((1S,3S)-3-((2-hydroxyethyl)amino)cyclopentyl)-8-((4-methylpiperazin-1-yl)methyl)pyrimido[4,5-c]isoquinolin-6(5H)-one] | 160 nM
CC(C)(C)OC(=O)N1CCC(Cc2ccc3c(c2)c(=O)n([C@H]2CC[C@H](O)CC2)c2nc(NCC4CC4)ncc32)CC1 [Compound 206] | 1280 nM
CCCCNc1ncc2c3ccc(N4CCN(C)CC4)cc3c(=O)n([C@H]3CC[C@H](O)CC3)c2n1 [Compound 61, trans-3-(Butylamino)-5-(4-hydroxycyclohexyl)-8-(4-methylpiperazin-1-yl)pyrimido[4,5-c]isoquinolin-6(5H)-one] | 23.1 nM
CCCCNc1ncc2c3ccc(N4C[C@@H](C)N(C)C[C@@H]4C)cc3c(=O)n([C@H]3CC[C@H](O)CC3)c2n1 [Compound 78, trans-3-(Butylamino)-5-(4-hydroxycyclohexyl)-8-((2S,5R)-2,4,5-trimethylpiperazin-1-yl)pyrimido[4,5-c]isoquinolin-6(5H)-one] | 9 nM

Second part, the compound after the results:

EC50 | SMILES
5.9 nM | CCCCNc1ncc2c3ccc(CN4CCN(C)CC4)cc3c(=O)n(C3CCC(C)(O)CC3)c2n1 (stereo not drawn) [Compound 15, trans-3-(Butylamino)-5-(4-hydroxy-4-methylcyclohexyl)-8-((4-methylpiperazin-1-yl)methyl)pyrimido[4,5-c]isoquinolin-6(5H)-one]
1670 nM | CN1CCN(Cc2ccc3c(c2)c(=O)n(C2CCOCC2)c2nc(NCC4CC4)ncc32)CC1 [Compound 133]
12.5 nM | CC(C)N1CCN(Cc2ccc3c(c2)c(=O)n([C@H]2CC[C@](C)(O)CC2)c2nc(NCC4CC4)ncc32)CC1 [Compound 31, trans-3-((Cyclopropylmethyl)amino)-5-(4-hydroxy-4-methylcyclohexyl)-8-((4-isopropylpiperazin-1-yl)methyl)pyrimido[4,5-c]isoquinolin-6(5H)-one]
28.3 nM | C[C@]1(O)CC[C@H](n2c(=O)c3cc(CN4CCN(c5ccncc5)CC4)ccc3c3cnc(NCC4CC4)nc32)CC1 [Compound 224, trans-3-((Cyclopropylmethyl)amino)-5-(4-hydroxy-4-methylcyclohexyl)-8-((4-(pyridin-4-yl)piperazin-1-yl)methyl)pyrimido[4,5-c]isoquinolin-6(5H)-one]
289 nM | O=c1c2cc(N3CCN(CC(F)(F)F)CC3)ccc2c2cnc(NCC3CC3)nc2n1[C@H]1CC[C@H](O)CC1 [Compound 104, trans-3-((Cyclopropylmethyl)amino)-5-(4-hydroxycyclohexyl)-8-(4-(2,2,2-trifluoroethyl)piperazin-1-yl)pyrimido[4,5-c]isoquinolin-6(5H)-one]
69.1 nM | CN1CCN(c2ccc3c(c2)c(=O)n(C2CCC(C)(O)CC2)c2nc(NCC4CC4)ncc32)CC1 (stereo not drawn) [Compound 97, trans-3-((Cyclopropylmethyl)amino)-5-(4-hydroxy-4-methylcyclohexyl)-8-(4-methylpiperazin-1-yl)pyrimido[4,5-c]isoquinolin-6(5H)-one]
320 nM | CN1CCC(n2c(=O)c3cc(CN4CCN(C)CC4)ccc3c3cnc(NCC4CC4)nc32)CC1 [Compound 136]
620 nM | CC1(O)CCC(n2c(=O)c3ccccc3c3cnc(NCC4CC4)nc32)CC1 (stereo not drawn) [Compound 121, trans-3-((Cyclopropylmethyl)amino)-5-(4-hydroxy-4-methylcyclohexyl)pyrimido[4,5-c]isoquinolin-6(5H)-one]
170 nM | O=c1c2cc(N3CCNCC3)ccc2c2cnc(NCC3CC3)nc2n1[C@H]1CC[C@H](O)CC1 [Compound 174]
76.5 nM | C[C@]1(O)CC[C@H](n2c(=O)c3ccccc3c3cnc(NCC4CCC4)nc32)CC1 [Compound 123, trans-3-((Cyclobutylmethyl)amino)-5-(4-hydroxy-4-methylcyclohexyl)pyrimido [4,5-c]isoquinolin-6(5H)-one]
6.2 nM | CN1CCN(Cc2ccc3c(c2)c(=O)n([C@H]2CC[C@](C)(O)CC2)c2nc(NCCC4CC4)ncc32)CC1 [Compound 29, trans-3-((2-Cyclopropylethyl)amino)-5-(4-hydroxy-4-methylcyclohexyl)-8-((4-methylpiperazin-1-yl)methyl)pyrimido[4,5-c]isoquinolin-6(5H)-one]
18.3 nM | CC(C)N1CCN(Cc2ccc3c(c2)c(=O)n([C@H]2CC[C@H](O)CC2)c2nc(NCC4CC4)ncc32)CC1 [Compound 30, trans-3-((Cyclopropylmethyl)amino)-5-(4-hydroxycyclohexyl)-8-((4-isopropylpiperazin-1-yl)methyl)pyrimido[4,5-c]isoquinolin-6(5H)-one]
97.5 nM | CC(C)N1CCN(c2ccc3c(c2)c(=O)n([C@H]2CC[C@H](O)CC2)c2nc(NCC4CC4)ncc32)CC1 [Compound 176]
